Measured values taken from US7323447B2, “Hepatitis C virus inhibitors” (Bristol-Myers Squibb Company, priority 2005, dated 2008).

Tests used:
[1] = molecular target: T1, HCV NS3/4A protease complex (BMS strain) (UniProt P27958); assay: FRET peptide assay to monitor HCV NS3/4A proteolytic activity, BMS strain; format: biochemical, Hepatitis C virus (genotype 1a); settings: read-out: IC50 Range; HCV NS3/4A enzyme assay; Table 1
T1 construct: other: HCV NS3/4A enzyme assay; said of H77 and J4L6S; fused on or other part: Three-lysine solubilising tail at the NS4A C-terminus and a His tag from pET21b (Ni-NTA purification), for the H77 and J4L6S constructs
T1 sequence (P27958 1027-1657, one chain of several): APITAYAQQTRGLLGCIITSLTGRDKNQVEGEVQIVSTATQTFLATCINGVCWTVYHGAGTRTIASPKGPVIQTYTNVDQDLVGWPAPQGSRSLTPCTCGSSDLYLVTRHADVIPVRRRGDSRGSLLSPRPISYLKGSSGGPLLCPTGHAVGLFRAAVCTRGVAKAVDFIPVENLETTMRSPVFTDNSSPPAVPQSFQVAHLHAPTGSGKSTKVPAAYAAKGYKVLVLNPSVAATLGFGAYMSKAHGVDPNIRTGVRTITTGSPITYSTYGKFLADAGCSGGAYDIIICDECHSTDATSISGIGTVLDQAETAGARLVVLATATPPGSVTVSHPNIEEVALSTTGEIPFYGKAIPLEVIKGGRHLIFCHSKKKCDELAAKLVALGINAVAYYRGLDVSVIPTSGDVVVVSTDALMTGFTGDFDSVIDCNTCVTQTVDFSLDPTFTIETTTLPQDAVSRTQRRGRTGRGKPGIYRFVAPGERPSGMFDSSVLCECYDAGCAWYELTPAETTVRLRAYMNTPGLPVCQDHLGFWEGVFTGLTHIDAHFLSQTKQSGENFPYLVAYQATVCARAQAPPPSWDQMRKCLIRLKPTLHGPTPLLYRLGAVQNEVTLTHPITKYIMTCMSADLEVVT
How it was run: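 Recombinant NS3/4A (BMS strain, genotype 1a, >90% pure) cleaving FRET depsipeptide RET S1 (EDANS/DABCYL) at 2 μM; enzyme 2-3 nM (300 pM with 50 μg/ml BSA for sensitive runs). Buffer 50 mM HEPES pH 7.5, 0.15 M NaCl, 0.1% Triton, 15% glycerol, 10 mM βME; fluorescence followed in real time.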

[2] = system: HCV replicon in HUH-7 cells; assay: HCV replicon FRET assay; format: cell-based, Hepatitis C virus (strain 1b); settings: Hepatitis C virus, Huh-7, read-out: EC50 Range, HCV replicon cell assay; Table 1
How it was run: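 HUH-7 cells carrying a genotype 1b subgenomic neo replicon (NS3–NS5B) treated 4 days at 37 °C with compound in 0.5% DMSO final. CC50 from alamarBlue fluorescence after 4 h; cells then lysed with FRET protease substrate at 10 μM final and read kinetically at 340/490 nm to give EC50.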

C=C[C@@H]1C[C@]1(NC(=O)[C@@H]1C[C@@H](Oc2nc(-c3ccc(OC(F)(F)F)cc3)cc3cc(OC)ccc23)CN1C(=O)[C@@H](O)C1CCCCC1)C(=O)NS(=O)(=O)C1CC1 [Example 62Compound 62]
IC50 [1]: 100 to 1000 nM | EC50 [2]: 500 to 5000 nM

C=C[C@@H]1C[C@]1(NC(=O)[C@@H]1C[C@@H](Oc2nc(-c3ccc(OC(F)(F)F)cc3)cc3cc(OC)ccc23)CN1C(=O)[C@@H](O)C(C)(C)COC)C(=O)NS(=O)(=O)C1CC1 [Example 63Compound 63]
IC50 [1]: < 100 nM | EC50 [2]: 500 to 5000 nM
